Test results: US20240409746A1, “AZO IRON COMPLEX DYE, INK COMPOSITION CONTAINING SAME, AND METHOD FOR PRODUCING AZO IRON COMPLEX DYE” (ORIENT CHEMICAL INDUSTRIES CO., LTD., priority 2021, published 2024)

Assays:
Assay type in all cases: physicochemical
[1] = Solubility evaluation (maximum concentration with no insoluble substances on the membrane filter); details: for Maximum concentration (%) Ethanol / Maximum concentration (%) Methyl ethyl ketone: tested at 5%, 10%, 15% and 20%, ultrasonically dispersed 10 minutes, 1 μm PTFE membrane filter
Source text: (§1) Then the azo iron complex dyes solutions were filtered through a membrane filter (pore size 1 μm, PTFE) under reduced pressure, and the maximum concentrations of the azo iron complex dyes were defined as the concentrations at which it was confirmed that there were no insoluble substances on the membrane filter. Then the hue of the methyl ethyl ketone solution with the azo iron complex dyes concentrations of 5% was visually observed.

[2] = Visual observation of hue of 5% solution of the azo iron complex dye; details: for Hue of 5% methyl ethyl ketone solution with azo iron complex dye: 5% in methyl ethyl ketone, visually observed
Procedure: A solution of the azo iron complex dye A-1 in methyl ethyl ketone was prepared at a concentration of 10 mg/1000 ml (10 ppm). The absorbance of this solution was measured using an ultraviolet-visible spectrophotometer (available from Shimadzu Corporation; trade name UV-1700).
as §1

[3] = Electrical conductivity measurement; details: 6% solution in methyl ethyl ketone
Source text: The azo iron complex dye of the present invention can be suitably used in the ink composition for a CIJ printer. Herein, the electrical conductivity K of the azo iron complex dye is preferably 300-2200 μS/cm, and more preferably 600-2000 μS/cm. As long as the electrical conductivity is within this range, the charge of the ink composition for a CIJ printer containing the azo iron complex dye can be stably and freely controlled, so that the ejection stability of the ink composition can be improved. Note that the electrical conductivity K is measured by inserting and immersing an electrode of an electrical conductivity meter in a 6 mass % methyl ethyl ketone solution of the azo iron complex dye.
A 6% solution of the azo iron complex dye A-1 in methyl ethyl ketone was prepared and measured using an electrical conductivity meter (available from Eutech Instruments Pte, Ltd.; trade name CyberScan CON100). As a result, the electrical conductivity K was 1530 μS/cm. Furthermore, a 6% solution of the azo iron complex dye A-1 in methyl ethyl ketone was prepared and measured using a conductivity meter (available from Knick Co., Ltd.; trade name Conducell 4USF-PG120). As a result, the electrical conductivity K was […].

[4] = Dissolution stability of dye solution on standing

Structure (SMILES)	Maximum concentration (%) Ethanol [1] [%]	Solubility in both methyl ethyl ketone and ethanol (in words) [1]	Maximum concentration (%) Methyl ethyl ketone [1] [%]	Hue of 5% methyl ethyl ketone solution with azo iron complex dye [2]	Color of solution adjusted to a concentration of 5% [2]	Electrical conductivity K immediately after dissolution ([3]; immediately after dissolution) [μS/cm]	Dissolution stability, left overnight ([4]; 5% solution, left overnight (8 hours))	Dissolution stability in ethanol ([4]; ethanol solution allowed to stand for 10 minutes)	Electrical conductivity K ([3]; CyberScan CON100) [μS/cm]
CCCCN(CCCC)c1ccc2c(c1)[O][Fe]1([O]c3cc(N(CCCC)CCCC)ccc3N=Nc3cc(C)c(N=Nc4ccc(C#N)cc4)cc3[O]1)[O]c1cc(N=Nc3ccc(C#N)cc3)c(C)cc1N=N2 (centres unmarked) [B-2]	<5	low solubility	5	black color within a practical range	sufficient black color	165	precipitation was observed	precipitate was confirmed	–
O=[N+]([O-])c1ccc2c(c1)[O][Fe]1([O]c3cc([N+](=O)[O-])ccc3N=Nc3c(ccc4ccccc34)[O]1)[O]c1ccc3ccccc3c1N=N2 (centres unmarked) [B-1]	5	good solubility	10	reddish brown hue	dark brown color	–	–	–	1450
